Experimental findings from US6403600B1, “Methoximinophenylacetic acid amides” (Bayer Aktiengesellschaft, priority 1998, dated 2002) are described below.

A short description of this series: logP determination by HPLC (EEC-Directive 79/831 Annex V. A8). In kind it is physicochemical. The conditions noted are these: gradient method, acetonitrile/0.1% aqueous phosphoric acid.
For the compound `CON=C(C(=O)N(C)SC(F)(Cl)Cl)c1ccccc1CON=C(C)c1cccc(Cl)c1` [Example 77], the logP turned out to be 5.79.

Regarding `CON=C(C(=O)N(C)SC(F)(F)F)c1ccccc1CON=C(C)c1cccc(Cl)c1` [Example 78], the logP stood at 5.39.

For `CON=C(C(=O)N(C)SC(F)(Cl)Cl)c1ccccc1CON=C(C)c1ccc(OC)c(OC)c1` [Example 79], the logP was found to be 4.7.

`CON=C(C(=O)N(C)SC(F)(F)F)c1ccccc1CON=C(C)c1ccc(OC)c(OC)c1` [Example 80]: the logP is given as 4.36.

`CON=C(C(=O)N(C)SC(=O)OC)c1ccccc1CON=C(C)c1cccc(Cl)c1` [Example 81] registered a logP of 4.71.

As for `CON=C(C(=O)N(C)SC(=O)OC)c1ccccc1CON=C(C)c1ccc(OC)c(OC)c1` [Example 82], the log partition coefficient (logP) is 3.7.

In the case of `CON=C(C(=O)N(C)SC(F)(Cl)Cl)c1ccccc1CON=C(C)c1cccc(F)c1` [Example 83], the logP is 5.36.

In turn, `CON=C(C(=O)N(C)SC(F)(F)F)c1ccccc1CON=C(C)c1cccc(F)c1` [Example 84] displayed a lipophilicity (logP) of 4.97.

The compound `CON=C(C(=O)N(C)SC(F)(Cl)Cl)c1ccccc1Oc1ncnc(Oc2cccc(Cl)c2C)c1F` [Example 86] displayed a logP of 5.59.

In the case of `CON=C(C(=O)N(C)SC(F)(Cl)Cl)c1ccccc1Oc1ncnc(Oc2cccc(C=O)c2Cl)c1F` [Example 87], the logP amounted to 4.72.

The compound `CON=C(C(=O)N(C)SC(F)(Cl)Cl)c1ccccc1Oc1ncnc(Oc2ccccc2)c1F` [Example 88] gave a logP of 4.76.

As for `CON=C(C(=O)N(C)SC(F)(Cl)Cl)c1ccccc1Oc1ncnc(Oc2ccccc2C)c1F` [Example 89], the logP amounted to 5.05.

Consider `CON=C(C(=O)N(C)SC(F)(Cl)Cl)c1ccccc1Oc1ncnc(Oc2ccc(C)cc2C)c1F` [Example 90], for which the logP is reported as 5.41.

`CON=C(C(=O)N(C)SC(F)(Cl)Cl)c1ccccc1Oc1ncnc(Oc2cccc(Cl)c2Cl)c1F` [Example 91] gave a logP of 5.46.

Compound `CON=C(C(=O)N(C)SC(F)(Cl)Cl)c1ccccc1Oc1ncnc(Oc2cccc(C)c2C)c1F` [Example 92] registered a logP of 5.34.

Compound `CON=C(C(=O)N(C)SC(F)(Cl)Cl)c1ccccc1Oc1ncnc(Oc2ccccc2OC(F)(F)F)c1F` [Example 93] returned a logP of 5.2.

For the compound `CON=C(C(=O)N(C)SC(F)(Cl)Cl)c1ccccc1Oc1ncnc(Oc2ccccc2OC(F)F)c1F` [Example 94], the logP is reported as 4.7.

In turn, `CCSCc1ccccc1Oc1ncnc(Oc2ccccc2C(=NOC)C(=O)N(C)SC(F)(Cl)Cl)c1F` [Example 95] returned a logP of 5.36.

As for `CON=C(C(=O)N(C)SC(F)(Cl)Cl)c1ccccc1Oc1ncnc(Oc2cccc3c2OC(C)(C)C3)c1F` [Example 96], the logP is 5.27.

In turn, `CON=C(C(=O)N(C)SC(F)(Cl)Cl)c1ccccc1Oc1ncnc(Oc2c(C)cccc2C)c1F` [Example 97] showed a logP of 5.4.

`CN(SC(F)(Cl)Cl)C(=O)C(=NOCF)c1ccccc1Oc1ncnc(Oc2ccccc2Cl)c1F` [Example 98]: the logP is on record as 4.84.

As for `CON=C(C(=O)N(C)SC(F)(Cl)Cl)c1ccccc1Oc1ncnc(Oc2ccc(OC(F)(F)F)cc2Cl)c1F` [Example 99], the logP is 5.08.

As to `CON=Cc1cccc(Oc2ncnc(Oc3ccccc3C(=NOC)C(=O)N(C)SC(F)(Cl)Cl)c2F)c1` [Example 100], the logP is 5.81.

As to `CON=C(C(=O)N(C)SC(F)(Cl)Cl)c1ccccc1Oc1ncnc(Oc2cccc(Br)c2)c1F` [Example 101], the lipophilicity (logP) is on record as 5.39.

`CON=C(C(=O)N(C)SC(F)(Cl)Cl)c1ccccc1Oc1ncnc(Oc2ccc(Cl)cc2Cl)c1F` [Example 102] registered a logP of 5.76.

In turn, `CON=C(C(=O)N(C)SC(F)(Cl)Cl)c1ccccc1Oc1ncnc(Oc2cc(Cl)cc(Cl)c2)c1F` [Example 103] showed a logP of 5.71.

`CON=C(C(=O)N(C)SC(F)(Cl)Cl)c1ccccc1Oc1ncnc(Oc2ccc(Br)cc2)c1F` [Example 104] showed a logP of 5.19.

The logP is a log measure of how a compound divides between an organic and an aqueous phase. Read a high logP as higher lipophilicity.
